# In ChEMBL document CHEMBL4622903, “Repurposing of antipsychotics perphenazine for the treatment of endometrial cancer” (Bioorg Med Chem Lett, 2020):
# The source made the active and inactive calls. No cut-off for these calls is given here.
# Experiments:
# Ishikawa [1] = experiment: Inhibition of colony formation in progesterone sensitive human Ishikawa cells at 20 to 30 uM; type: functional, cell-based
# Ishikawa [2] = experiment: Antitumor activity against human Ishikawa cells xenografted in mouse assessed as tumor growth inhibition at 30 mg/kg measured after 28 days relative to control; type: functional; conditions: 672 h, read-out: GI
# AN3-CA [3] = experiment: Antiproliferative activity against human AN3CA cells assessed as inhibition of cell viability by CCK8 assay; type: functional, cell-based
# KLE [4] = experiment: Antiproliferative activity against human KLE cells assessed as inhibition of cell viability by CCK8 assay; type: functional, cell-based
# Ishikawa [5] = experiment: Antimigratory activity against progesterone sensitive human Ishikawa cells assessed as inhibition of cell migration at 10 uM after 48 hrs by transwell assay; type: functional, cell-based
# HEC-1-A [6] = experiment: Antiproliferative activity against human Hec1A cells assessed as inhibition of cell viability by CCK8 assay; type: functional, cell-based
# KLE [7] = experiment: Antimigratory activity against progesterone-resistant human KLE cells assessed as reduction in cell migration at 10 uM after 48 hrs by transwell assay; type: functional, cell-based
# Ishikawa [8] = experiment: Antiproliferative activity against human Ishikawa cells assessed as inhibition of cell viability by CCK8 assay; type: functional, cell-based
# HEC-1B cell line [9] = experiment: Antiproliferative activity against human HEC1B cells assessed as inhibition of cell viability by CCK8 assay; type: functional, cell-based
# Ishikawa [10] = experiment: Induction of apoptosis in progesterone-sensitive human Ishikawa cells assessed as necrotic cells at 10 uM after 48 hrs by Annexin-V/PI staining based flow cytometry (reference value: 1.21%); type: functional
# Ishikawa [11] = experiment: Inhibition of colony formation in progesterone sensitive human Ishikawa cells; type: functional, cell-based
# KLE [12] = experiment: Induction of apoptosis in progesterone-resistant human KLE cells assessed as late apoptotic cells at 10 uM after 48 hrs by Annexin-V/PI staining based flow cytometry (reference value: 3.56%); type: functional
# HEC-1B cell line [13] = experiment: Potency index, ratio of medroxyprogesterone acetate IC50 to test compound IC50 for antiproliferative activity against human HEC1B cells assessed as inhibition of cell viability by CCK8 assay; type: functional
# Ishikawa [14] = experiment: Induction of apoptosis in progesterone-sensitive human Ishikawa cells assessed as necrotic cells at 20 uM after 48 hrs by Annexin-V/PI staining based flow cytometry (reference value: 1.21%); type: functional
# Ishikawa [15] = experiment: Antitumor activity against human Ishikawa cells xenografted in mouse assessed as tumor growth inhibition at 15 mg/kg measured after 28 days relative to control; type: functional; conditions: 672 h, read-out: GI
# [16] = target: RAC-alpha serine/threonine-protein kinase (Homo sapiens) (UniProt P31749); experiment: Inhibition of AKT phosphorylation at ser 473 residue in human KLE cells at 20 uM after 48 hrs by Western blot analysis; type: cell-based
# HEC-1-A [17] = experiment: Potency index, ratio of medroxyprogesterone acetate IC50 to test compound IC50 for antiproliferative activity against human Hec1A cells assessed as inhibition of cell viability by CCK8 assay; type: functional
# [18] = target: RAC-alpha serine/threonine-protein kinase (Homo sapiens) (UniProt P31749); experiment: Inhibition of AKT phosphorylation at ser 473 residue in human Ishikawa cells at 20 uM after 48 hrs by Western blot analysis; type: cell-based
# AN3-CA [19] = experiment: Potency index, ratio of medroxyprogesterone acetate IC50 to test compound IC50 for antiproliferative activity against human AN3CA cells assessed as inhibition of cell viability by CCK8 assay; type: functional
# KLE [20] = experiment: Induction of apoptosis in progesterone-resistant human KLE cells after 48 hrs by Annexin-V/PI staining based flow cytometry; type: functional, cell-based
# KLE [21] = experiment: Induction of apoptosis in progesterone-resistant human KLE cells assessed as necrotic cells at 20 uM after 48 hrs by Annexin-V/PI staining based flow cytometry (reference value: 1.30%); type: functional
# KLE [22] = experiment: Induction of apoptosis in progesterone-resistant human KLE cells assessed as late apoptotic cells at 20 uM after 48 hrs by Annexin-V/PI staining based flow cytometry (reference value: 3.56%); type: functional
# KLE [23] = experiment: Induction of apoptosis in progesterone-resistant human KLE cells assessed as early apoptotic cells at 20 uM after 48 hrs by Annexin-V/PI staining based flow cytometry (reference value: 2.85%); type: functional
# KLE [24] = experiment: Induction of apoptosis in progesterone-resistant human KLE cells assessed as necrotic cells at 10 uM after 48 hrs by Annexin-V/PI staining based flow cytometry (reference value: 1.30%); type: functional
# Ishikawa [25] = experiment: Induction of apoptosis in progesterone-sensitive human Ishikawa cells assessed as late apoptotic cells at 20 uM after 48 hrs by Annexin-V/PI staining based flow cytometry (reference value: 3.56%); type: functional
# Ishikawa [26] = experiment: Potency index, ratio of medroxyprogesterone acetate IC50 to test compound IC50 for antiproliferative activity against human Ishikawa cells assessed as inhibition of cell viability by CCK8 assay; type: functional
# Ishikawa [27] = experiment: Induction of apoptosis in progesterone-sensitive human Ishikawa cells after 48 hrs by Annexin-V/PI staining based flow cytometry; type: functional, cell-based
# KLE [28] = experiment: Potency index, ratio of medroxyprogesterone acetate IC50 to test compound IC50 for antiproliferative activity against human KLE cells assessed as inhibition of cell viability by CCK8 assay; type: functional
# KLE [29] = experiment: Induction of apoptosis in progesterone-resistant human KLE cells assessed as early apoptotic cells at 10 uM after 48 hrs by Annexin-V/PI staining based flow cytometry (reference value: 2.85%); type: functional
# Ishikawa [30] = experiment: Induction of apoptosis in progesterone-sensitive human Ishikawa cells assessed as early apoptotic cells at 10 uM after 48 hrs by Annexin-V/PI staining based flow cytometry (reference value: 1.92%); type: functional
# [31] = Toxicity in mouse xenografted with human Ishikawa cells assessed as effect on body weight at 3 to 15 mg/kg after 28 days; type: organism-based; conditions: in vivo, 672 h
# Ishikawa [32] = experiment: Antitumor activity against human Ishikawa cells xenografted in mouse assessed as tumor growth inhibition at 3 mg/kg measured after 28 days relative to control; type: functional; conditions: 672 h, read-out: GI
# Ishikawa [33] = experiment: Induction of apoptosis in progesterone-sensitive human Ishikawa cells assessed as early apoptotic cells at 20 uM after 48 hrs by Annexin-V/PI staining based flow cytometry (reference value: 1.92%); type: functional
# Ishikawa [34] = experiment: Induction of apoptosis in progesterone-sensitive human Ishikawa cells assessed as late apoptotic cells at 10 uM after 48 hrs by Annexin-V/PI staining based flow cytometry (reference value: 3.56%); type: functional
# KLE [35] = experiment: Inhibition of colony formation in progesterone resistant human KLE cells; type: functional, cell-based
# Chain of RAC-alpha serine/threonine-protein kinase (Homo sapiens) (P31749 whole entry): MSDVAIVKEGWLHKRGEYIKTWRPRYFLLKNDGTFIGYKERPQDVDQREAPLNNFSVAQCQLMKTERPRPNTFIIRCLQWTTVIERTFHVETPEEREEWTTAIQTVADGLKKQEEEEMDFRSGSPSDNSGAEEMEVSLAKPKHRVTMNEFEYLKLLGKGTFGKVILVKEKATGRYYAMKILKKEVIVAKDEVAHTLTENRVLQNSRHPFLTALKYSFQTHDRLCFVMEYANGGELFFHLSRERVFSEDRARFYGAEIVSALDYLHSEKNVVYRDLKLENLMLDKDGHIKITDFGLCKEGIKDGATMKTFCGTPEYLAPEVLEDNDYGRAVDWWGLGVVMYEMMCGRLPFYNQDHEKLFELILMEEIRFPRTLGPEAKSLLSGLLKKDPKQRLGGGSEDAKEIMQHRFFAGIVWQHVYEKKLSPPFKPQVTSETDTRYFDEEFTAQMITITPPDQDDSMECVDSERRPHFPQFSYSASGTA
structure (smiles),measurement,setting,value
CC(=O)O[C@]1(C(C)=O)CC[C@H]2[C@@H]3C[C@H](C)C4=CC(=O)CC[C@]4(C)[C@H]3CC[C@@]21C [MEDROXYPROGESTERONE ACETATE],inhibition,Ishikawa [1],Active
same,inhibition in vivo at 30 mg/kg,Ishikawa [2],22.6%
same,IC50,AN3-CA [3],37.1 µM
same,IC50,KLE [4],> 80 µM
same,inhibition,Ishikawa [5],Active
same,IC50,HEC-1-A [6],51.8 µM
same,Activity,KLE [7],inactive
same,IC50,Ishikawa [8],37 µM
same,IC50,HEC-1B cell line [9],60.4 µM
OCCN1CCN(CCCN2c3ccccc3Sc3ccc(Cl)cc32)CC1 [PERPHENAZINE],Activity,Ishikawa [10],2.64%
same,inhibition,Ishikawa [11],Dose-dependent effect
same,Activity,KLE [12],7.88%
same,Ratio IC50,HEC-1B cell line [13],2
same,Activity,Ishikawa [14],2.68%
same,inhibition in vivo at 15 mg/kg,Ishikawa [15],79.9%
same,inhibition,[16],Active
same,Ratio IC50,HEC-1-A [17],2.2
same,inhibition,[18],Active
same,Ratio IC50,AN3-CA [19],1.5
same,Activity,KLE [20],Dose-dependent effect
same,Activity,KLE [21],2.68%
same,IC50,AN3-CA [3],25.4 µM
same,Activity,KLE [22],11.41%
same,IC50,KLE [4],30.8 µM
same,Activity,KLE [23],6.07%
same,Activity,KLE [24],5.45%
same,Activity,Ishikawa [25],12.52%
same,Ratio IC50,Ishikawa [26],1.9
same,Activity,Ishikawa [27],Dose-dependent effect
same,inhibition,Ishikawa [5],Active
same,IC50,HEC-1-A [6],23.3 µM
same,Activity,KLE [7],Active
same,Ratio IC50,KLE [28],>2.6
same,Activity,KLE [29],4.33%
same,Activity,Ishikawa [30],6.9%
same,IC50,Ishikawa [8],19.4 µM
same,IC50,HEC-1B cell line [9],29.8 µM
same,Activity,[31],Non-Toxic
same,inhibition in vivo at 3 mg/kg,Ishikawa [32],58.1%
same,Activity,Ishikawa [33],6.76%
same,Activity,Ishikawa [34],7.4%
same,inhibition,KLE [35],Dose-dependent effect
